The target in data set [1] is T1, human D3 (Homo sapiens, UniProt P35462).
T1 construct: expressed in transfected cells
The following applies: compounds known from the prior art (WO 2004/004729), read-out: D3-bonding (Ki), comparative substance, cited from earlier work.

Data set [2] deals with T2, 5-HT2 (Sus scrofa, UniProt P50129).
T2 construct: we incubated porcine cortex-membrane preparations; from tissue; host or cells: porcine cortex
The experiment in a line: Radioligand binding, 5-HT2, porcine cortex membranes, [3H]ketanserin. To be noted: average of 2-6 experiments in triplicate, read-out: Receptor binding Ki 5-HT2. As to the method: (§1) Measurement of the binding strengths of the compounds to the serotonin-receptor subtypes 5-HT1a and 5-HT2 was carried out according to methods described by us (Heindl, C. et al. Tetrahedron: Asymmetry 2003, 14, 3141-3152). For this we incubated porcine cortex-membrane preparations with the radioligands [^3H]8-OH-DPAT (for 5-HT1a) or [^3H]ketanserin (5-HT2) and the compounds in various concentrations. In the same way the affinity of the test compounds to the porcine α1-receptor was investigated, wherein porcine cortex-membrane preparations and the α1-selective radioligand [^3H]prazosin were used.

Data set [3] addresses T3, human D2long (Homo sapiens, UniProt P14416).
T3 construct: expressed in transfected cells
The experiment in a line: Radioligand binding, human D2long in CHO cell membranes, [3H]spiperone. The following applies: human receptor in CHO membranes, average of 2-6 experiments in triplicate. As for the experimental part:
(§2) The biological activities of the compounds according to the invention were determined in radioligand binding investigations. All radioligand experiments were performed according to methods described by us (Hübner, H. et al. J. Med. Chem. 2000, 43, 756-762). For the measurement of the affinities to the receptors of the D2-family membrane homogenates of Chinese hamster ovary cells (CHO cells) were used, which stably express the human D2long-, the human D2short- (Hayes, G. et al. Mol. Endocrinol. 1992, 6, 920-926), the human D3- (Sokoloff, P. et al. Eur. J. Pharmacol. 1992, 225, 331-337) or the human D4.4-receptor sub-type, (Asghari, V. J. Neurochem. 1995, 65, 1157-1165) respectively. Basically the binding assays took place by incubation of the receptor homogenates with the radioligand [^3H]spiperone and the compounds under investigation in various concentrations. Determination of the affinities to the D1-receptor took place with native membrane homogenates, obtained from porcine striatum, and the D1-selective radioligands [^3H]SCH 23390.

Data set [4] addresses T4, human D2short (Homo sapiens, UniProt P14416).
T4 construct: expressed in transfected cells
The data set is described as follows: Radioligand binding, human D2short in CHO cell membranes, [3H]spiperone. The following applies: human receptor in CHO membranes, average of 2-6 experiments in triplicate. As for the experimental part: as §2

The target in data set [5] is T5, human D4.4 (Homo sapiens, UniProt P21917).
T5 construct: expressed in transfected cells
T5 sequence (P21917 1-419): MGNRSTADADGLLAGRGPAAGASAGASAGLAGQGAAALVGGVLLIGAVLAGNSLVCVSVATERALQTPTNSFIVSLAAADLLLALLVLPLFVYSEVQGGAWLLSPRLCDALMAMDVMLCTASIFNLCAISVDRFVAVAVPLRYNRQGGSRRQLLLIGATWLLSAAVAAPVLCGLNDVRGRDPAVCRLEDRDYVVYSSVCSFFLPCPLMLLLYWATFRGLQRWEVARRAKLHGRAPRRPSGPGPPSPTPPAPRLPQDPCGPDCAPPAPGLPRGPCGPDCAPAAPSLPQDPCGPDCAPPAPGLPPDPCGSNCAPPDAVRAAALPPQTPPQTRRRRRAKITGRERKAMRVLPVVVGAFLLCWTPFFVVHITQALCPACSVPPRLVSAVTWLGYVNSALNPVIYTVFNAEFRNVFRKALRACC
The experiment in a line: Radioligand binding, human D4.4 in CHO cell membranes, [3H]spiperone. The following applies: human D4.4 in CHO membranes, average of 2-6 experiments in triplicate, read-out: Receptor binding Ki D4. As to the method: as §2

For data set [6], the target named is T6, D1-receptor (Sus scrofa, UniProt P50130).
T6 construct: native membrane homogenates, obtained from porcine striatum; from tissue; host or cells: porcine striatum
T6 sequence (P50130 whole entry): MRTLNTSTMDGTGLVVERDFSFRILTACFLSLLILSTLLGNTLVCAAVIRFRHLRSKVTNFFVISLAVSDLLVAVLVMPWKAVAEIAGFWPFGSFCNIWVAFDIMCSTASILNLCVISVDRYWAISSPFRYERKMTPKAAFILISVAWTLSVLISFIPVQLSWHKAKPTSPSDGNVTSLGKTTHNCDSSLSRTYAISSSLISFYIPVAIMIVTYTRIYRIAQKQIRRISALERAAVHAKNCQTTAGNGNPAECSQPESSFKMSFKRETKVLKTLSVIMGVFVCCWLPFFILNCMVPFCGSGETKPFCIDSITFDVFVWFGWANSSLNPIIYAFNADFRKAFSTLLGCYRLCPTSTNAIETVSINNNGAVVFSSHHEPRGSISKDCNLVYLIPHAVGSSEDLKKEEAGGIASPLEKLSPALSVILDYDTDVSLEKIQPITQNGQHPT
The experiment in a line: Radioligand binding, D1-receptor, porcine striatum membranes, [3H]SCH 23390. The following applies: average of 2-6 experiments in triplicate. As to the method: as §2

Data set [7] has as its target T7, 5-HT1a (Sus scrofa, UniProt A0A4X1UTF5).
T7 construct: we incubated porcine cortex-membrane preparations; from tissue; host or cells: porcine cortex
T7 sequence (A0A4X1UTF5 1-422): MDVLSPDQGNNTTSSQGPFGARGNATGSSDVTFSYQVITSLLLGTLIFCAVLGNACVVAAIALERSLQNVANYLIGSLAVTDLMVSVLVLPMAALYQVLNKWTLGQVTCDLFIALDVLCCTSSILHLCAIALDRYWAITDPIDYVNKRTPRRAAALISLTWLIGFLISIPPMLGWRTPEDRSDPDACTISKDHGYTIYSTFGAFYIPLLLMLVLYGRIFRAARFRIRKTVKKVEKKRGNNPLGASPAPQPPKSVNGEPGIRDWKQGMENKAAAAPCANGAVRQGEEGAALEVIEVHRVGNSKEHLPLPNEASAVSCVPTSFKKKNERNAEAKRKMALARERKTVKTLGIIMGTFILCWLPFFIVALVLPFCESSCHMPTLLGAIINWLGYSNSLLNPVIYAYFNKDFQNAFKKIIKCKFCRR
The experiment in a line: Radioligand binding, 5-HT1a, porcine cortex membranes, [3H]8-OH-DPAT. The following applies: porcine 5-HT1a, average of 2-6 experiments in triplicate, read-out: Receptor binding Ki 5-HT1. As to the method: as §1

Data set [8] concerns the target porcine α1-receptor. The data set is described as follows: Radioligand binding, α1-receptor, porcine cortex membranes, [3H]prazosin. To be noted: average of 2-6 experiments in triplicate, read-out: Receptor binding Ki alpha1. As to the method:
as §1

The target of data set [9] is T1, human D3. The data set is described as follows: Radioligand binding, human D3 in CHO cell membranes, [3H]spiperone. As for the experimental part: as §2
The target of data set [10] is T8, dopamine D3 receptor (Homo sapiens, UniProt P35462).
T8 construct: expressed in transfected cells
T8 sequence (P35462 whole entry): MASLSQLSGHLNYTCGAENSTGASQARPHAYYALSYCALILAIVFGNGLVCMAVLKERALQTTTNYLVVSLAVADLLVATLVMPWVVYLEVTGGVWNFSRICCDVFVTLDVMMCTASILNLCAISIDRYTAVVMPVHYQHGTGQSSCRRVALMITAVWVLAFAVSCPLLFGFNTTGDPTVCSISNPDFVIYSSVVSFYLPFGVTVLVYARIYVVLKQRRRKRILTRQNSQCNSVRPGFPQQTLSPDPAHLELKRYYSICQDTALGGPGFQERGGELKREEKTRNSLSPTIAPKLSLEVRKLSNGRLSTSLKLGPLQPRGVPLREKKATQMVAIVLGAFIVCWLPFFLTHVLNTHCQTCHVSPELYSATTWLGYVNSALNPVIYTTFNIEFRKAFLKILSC
The data set is described as follows: Mitogenesis assay, [3H]thymidine incorporation in D3 receptor-expressing cells. In kind it is cell-based. The following applies: for pEC50: dose-effect curve, seven concentrations in quadruplicate; for Agonistic activity: with reference to the maximum effect of the full agonist quinpirol. As for the experimental part: Here various concentrations of the compounds under investigation were incubated with D3 receptor-expressing cells and then the receptor-mediated stimulation of the mitogenesis rate was measured by incorporation of the radioactive marker [^3H]thymidine.
A general note: Uptake of a labelled nucleoside into DNA is a usual measure of proliferation.

The mark [11] stands for this setting: Table 1c, read-out: D3-bonding (Ki), substance according to the invention.
The mark [12] stands for this setting: human receptor in CHO membranes, [3H]spiperone, average of 2-6 experiments in triplicate, read-out: Receptor binding Ki D3.
Setting [13] is: Table 1a, read-out: D3-bonding (Ki), substance according to the invention.
Where [14] appears, read: Table 1b, read-out: D3-bonding (Ki), substance according to the invention.

pEC50, pKi: −log10 of the molar value. Like-named read-outs stand apart in the source and are kept apart here.

Here are results for 12 compounds from patent publication US20080194539A1, “Phenyl Diazepane Carboxamides and Annelated Phenyl Piperazine Carboxamides Containing Oxygen and Used as Dopamine D3 Antagonists” (Schwarz Pharma AG, priority 2004, published 2008).

T3 sequence (P14416 whole entry): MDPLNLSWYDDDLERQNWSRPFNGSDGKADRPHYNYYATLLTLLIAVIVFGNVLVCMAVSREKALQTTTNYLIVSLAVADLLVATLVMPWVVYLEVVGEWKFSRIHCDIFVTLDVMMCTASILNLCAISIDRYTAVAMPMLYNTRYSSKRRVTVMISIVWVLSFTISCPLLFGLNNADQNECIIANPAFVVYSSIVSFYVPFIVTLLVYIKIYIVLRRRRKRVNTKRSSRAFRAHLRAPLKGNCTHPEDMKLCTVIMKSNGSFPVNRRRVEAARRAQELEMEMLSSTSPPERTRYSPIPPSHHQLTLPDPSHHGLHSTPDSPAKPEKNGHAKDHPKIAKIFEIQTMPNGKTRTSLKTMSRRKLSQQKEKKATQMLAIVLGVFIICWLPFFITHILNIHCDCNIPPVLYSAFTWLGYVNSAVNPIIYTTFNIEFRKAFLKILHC
T2 sequence (P50129 whole entry): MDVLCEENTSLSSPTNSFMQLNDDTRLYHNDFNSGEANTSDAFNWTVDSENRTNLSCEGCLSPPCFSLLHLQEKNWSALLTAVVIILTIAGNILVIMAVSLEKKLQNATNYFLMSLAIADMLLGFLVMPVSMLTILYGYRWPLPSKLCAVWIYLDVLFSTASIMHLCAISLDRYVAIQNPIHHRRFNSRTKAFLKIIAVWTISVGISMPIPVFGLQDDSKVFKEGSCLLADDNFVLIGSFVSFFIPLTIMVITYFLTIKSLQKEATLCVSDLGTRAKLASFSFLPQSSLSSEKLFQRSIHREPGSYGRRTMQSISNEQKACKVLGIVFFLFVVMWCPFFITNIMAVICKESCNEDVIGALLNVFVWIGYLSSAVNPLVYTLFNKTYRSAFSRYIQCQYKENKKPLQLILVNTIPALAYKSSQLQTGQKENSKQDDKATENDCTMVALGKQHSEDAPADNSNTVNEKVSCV
T1 sequence (P35462 whole entry): as the sequence (P35462 whole entry) above
T4 sequence (P14416 1-414 isoform P14416-2): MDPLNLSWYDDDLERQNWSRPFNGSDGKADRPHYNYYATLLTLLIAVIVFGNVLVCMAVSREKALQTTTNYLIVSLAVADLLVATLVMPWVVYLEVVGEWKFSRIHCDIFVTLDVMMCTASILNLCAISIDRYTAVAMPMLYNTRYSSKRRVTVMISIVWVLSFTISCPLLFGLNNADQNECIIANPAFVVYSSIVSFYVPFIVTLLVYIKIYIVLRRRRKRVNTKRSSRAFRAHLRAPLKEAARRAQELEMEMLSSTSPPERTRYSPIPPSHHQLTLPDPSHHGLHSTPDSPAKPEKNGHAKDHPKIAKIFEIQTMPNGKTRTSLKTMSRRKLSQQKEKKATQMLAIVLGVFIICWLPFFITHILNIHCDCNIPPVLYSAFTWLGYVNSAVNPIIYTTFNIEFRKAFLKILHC

On to `N#Cc1ccc2cc(C(=O)NCCCCN3CCN(c4cccc(Cl)c4Cl)CC3)[nH]c2c1`, for which the pKi in [1] (Table 1a) was 9.46.

As to `N#Cc1ccc2sc(C(=O)NCCCCN3CCN(c4cccc(Cl)c4Cl)CC3)cc2c1`, the pKi in data set [1] (Table 1c) was 9.60.

Take `O=C(NCCCCN1CCN(c2cccc3c2OCC3)CC1)c1cc2ccccc2s1` [Example 1, N-(4-(4-(2,3-dihydrobenzofuran-7-yl)piperazin-1-yl)butyl)benzo[b]thiophen-2-ylcarbamide]: the pKi in data set [2] is 7.00; in data set [3], 7.14; in [4], 7.30; in data set [5] it was 7.19; in data set [6], 6.59; in data set [7], 7.74. For the same compound, the values for the pKi in [8], in data set [9] (setting [11]) and in data set [9] (setting [12]) were 8.38, 9.51 and 9.51, respectively. For the same compound, the pEC50 in data set [10] was 8.49. Further, the Agonistic activity in data set [10] worked out at 42%.

As to `O=C(NCCCCN1CCN(c2cccc3c2OCC3)CC1)c1cc2ccccc2[nH]1` [Example 2, N-(4-(4-(2,3-dihydrobenzofuran-7-yl)piperazin-1-yl)butyl)indol-2-ylcarbamide], the pKi in data set [2] is 6.96; in data set [3], 7.35; in data set [4] it was 7.57; in data set [5], 7.66; in data set [6], 6.52; in data set [7], 7.52. Further, the pKi in data set [8] is 8.70; in [9] (setting [13]), 9.46; in data set [9] (setting [12]), 9.80. For the same compound, in [10], the Agonistic activity is listed as 0%.

In turn, `O=C(NCCCCN1CCN(c2cccc3c2OCCC3)CC1)c1cc2ccccc2s1` [Example 3, N-(4-(4-(chroman-8-yl)piperazin-1-yl)butyl)benzo[b]thiophen-2-ylcarbamide] came in with a melting point of 134 °C. Besides, in [2], the pKi is 7.11. In [3], this compound had a pKi of 6.96. Also, in data set [4], the pKi was 7.08. For the same compound, the pKi in data set [5] was 7.30. In [6], this compound showed a negative logarithm of the Ki (pKi) of 6.52. Besides, the pKi in data set [7] was 7.77. The pKi in data set [8] is 8.34. Further, the pKi in data set [9] (setting [11]) was 9.80. For the same compound, the pKi in [9] (setting [12]) is 9.46. In data set [10], this compound had a pEC50 of 8.74 and an Agonistic activity of 38%.

As for `O=C(NCCCCN1CCN(c2cccc3c2OCCC3)CC1)c1cc2ccccc2[nH]1` [Example 4, N-(4-(4-(chroman-8-yl)piperazin-1-yl)butyl)indol-2-ylcarbamide], the negative-log Ki (pKi) in [2] is 6.96; in [3], 7.38; in [4], 7.66; in [5], 7.47; in data set [6], 6.54; in [7] it was 7.70. In addition, the pKi in data set [8] was 8.64; in [9] (setting [13]), 9.77; in data set [9] (setting [12]) it was 9.77. In data set [10], this compound came in with an Agonistic activity of 0%.

`O=C(NCCCCN1CCN(c2cccc3c2OCCCC3)CC1)c1cc2ccccc2s1` [Example 12, N-(4-(4-(2,3,4,5-tetrahydrobenzo[b]oxepin-9-yl)piperazin-1-yl)butyl)benzo[b]thiophen-2-ylcarbamide]: the melting point was found to be 124 °C. Besides, the pKi in data set [9] (setting [11]) was 10.01.

`N#Cc1ccc2sc(C(=O)NCCCCN3CCN(c4cccc5c4OCCCC5)CC3)cc2c1` [Example 13, N-(4-(4-(2,3,4,5-tetrahydrobenzo[b]oxepin-9-yl)piperazin-1-yl)butyl)-5-cyanobenzo[b]thiophen-2-ylcarbamide]: the pKi in [9] (setting [11]) was 10.01.

Turning to `O=C(NCCCCN1CCN(c2cccc3c2OCCCC3)CC1)c1cc2ccccc2o1` [Example 14, N-(4-(4-(2,3,4,5-tetrahydrobenzo[b]oxepin-9-yl)piperazin-1-yl)butyl)benzofuran-2-ylcarbamide], the pKi in [9] (setting [14]) is 10.05.

For `O=C(NCCCCN1CCN(c2cccc3c2OCCCC3)CC1)c1cc2ccccc2[nH]1` [Example 16, N-(4-(4-(2,3,4,5-tetrahydrobenzo[b]oxepin-9-yl)piperazin-1-yl)butyl)indol-2-ylcarbamide], the pKi in data set [9] (setting [13]) is 10.28.

As for `N#Cc1ccc2cc(C(=O)NCCCCN3CCN(c4cccc5c4OCCCC5)CC3)[nH]c2c1` [Example 17, N-(4-(4-(2,3,4,5-tetrahydrobenzo[b]oxepin-9-yl)piperazin-1-yl)butyl)-6-cyanoindol-2-ylcarbamide], in data set [9] (setting [13]), the pKi was 10.12.

“N-(4-(4-(2,3,4,5-tetrahydrobenzo[b]oxepin-9-yl)piperazin-1-yl)butyl)-5-bromobenzofuran-2-ylcarbamide [Example 15]”: in data set [9] (setting [14]), the pKi is 9.96.

As usually defined, the pKi is −log10 of the Ki, conventionally taken in molar units. What is called pEC50 is the EC50 on a negative log10 scale, so that one unit is a factor of ten. Higher therefore signals a small EC50. In general, melting point refers to the temperature of the solid-liquid transition.
